# Measured values reported in PubChem BioAssay (NCI).
#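 Where inhibition never reached the appropriate level, the endpoint shown equals the highest concentration tested. Otherwise, values were interpolated linearly from a five-concentration, 48-hour dose response in 96-well plates. At the TGI there is no net growth.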
# Experiments:
# Test in all cases: DTP human tumour cell line panel, 48 h
# [1] = test system: MDA-MB-231 breast
# [2] = test system: RPMI-8226 leukemia
# [3] = test system: HT29 colon
# [4] = test system: OVCAR-4 ovarian
# [5] = test system: SK-OV-3 ovarian
# [6] = test system: NCI/ADR-RES ovarian
# [7] = test system: OVCAR-5 ovarian
# [8] = test system: EKVX NSCLC
# [9] = test system: RXF 393 renal
# [10] = test system: HL-60(TB) leukemia
# [11] = test system: SF-268 CNS
# [12] = test system: PC-3 prostate
# [13] = test system: SK-MEL-28 melanoma
# [14] = test system: BT-549 breast
# [15] = test system: CCRF-CEM leukemia
# [16] = test system: T-47D breast
# [17] = test system: HCC-2998 colon
# [18] = test system: KM12 colon
# [19] = test system: OVCAR-8 ovarian
# [20] = test system: HCT-116 colon
# [21] = test system: UACC-257 melanoma
# [22] = test system: SN12C renal
# [23] = test system: MCF7 breast
# [24] = test system: NCI-H460 lung
# [25] = test system: SW-620 colon
# [26] = test system: HCT-15 colon
# [27] = test system: NCI-H522 lung
# [28] = test system: SR leukemia
# [29] = test system: OVCAR-3 ovarian
# [30] = test system: CAKI-1 renal
# [31] = test system: HOP-92 NSCLC
# [32] = test system: NCI-H23 lung
# [33] = test system: COLO 205 colon
# [34] = test system: UO-31 renal
# [35] = test system: SK-MEL-5 melanoma
# [36] = test system: LOX IMVI melanoma
# [37] = test system: K-562 leukemia
# [38] = test system: HOP-62 NSCLC
# [39] = test system: SF-539 CNS
# [40] = test system: ACHN renal
# [41] = test system: SNB-19 CNS
# [42] = test system: SNB-75 CNS
# [43] = test system: A549 NSCLC
# [44] = test system: SK-MEL-2 melanoma
# [45] = test system: UACC-62 melanoma
# [46] = test system: TK-10 renal
# [47] = test system: IGROV1 ovarian
# [48] = test system: U251 CNS
# [49] = test system: 786-0 renal
# [50] = test system: M14 melanoma
# [51] = test system: HS 578T breast
# [52] = test system: NCI-H226 lung
# [53] = test system: MOLT-4 leukemia
# [54] = test system: A498 renal
# [55] = test system: SF-295 CNS
# [56] = test system: DU-145 prostate
# [57] = test system: MDA-MB-435
# [58] = test system: MALME-3M melanoma
structure (smiles),measurement,setting,value
COc1ccc(/C=C/c2cc(=O)cc(/C=C/c3ccc(OC)c(O)c3)o2)cc1O,TGI,[1],5.73 µM
same,TGI,[2],1.99 µM
same,TGI,[3],4.1 µM
same,TGI,[4],9.77 µM
same,TGI,[5],21.7 µM
same,TGI,[6],> 24.3 µM
same,TGI,[7],24 µM
same,TGI,[8],13.3 µM
same,TGI,[9],2.96 µM
same,TGI,[10],5.02 µM
same,TGI,[11],> 75.9 µM
same,TGI,[12],12.3 µM
same,TGI,[13],> 100 µM
same,TGI,[14],10.3 µM
same,TGI,[15],5.91 µM
same,TGI,[16],10.8 µM
same,TGI,[17],3.32 µM
same,TGI,[18],4.26 µM
same,TGI,[19],10.1 µM
same,TGI,[20],7 µM
same,TGI,[21],3.78 µM
same,TGI,[22],> 33.6 µM
same,TGI,[23],5 µM
same,TGI,[24],5.73 µM
same,TGI,[25],> 21.8 µM
same,TGI,[26],13.6 µM
same,TGI,[27],> 100 µM
same,TGI,[28],2.89 µM
same,TGI,[29],6.51 µM
same,TGI,[30],12 µM
same,TGI,[31],13.5 µM
same,TGI,[32],5.8 µM
same,TGI,[33],> 61.1 µM
same,TGI,[34],11.5 µM
same,TGI,[35],4.98 µM
same,TGI,[36],3.95 µM
same,TGI,[37],> 100 µM
same,TGI,[38],12.2 µM
same,TGI,[39],3.47 µM
same,TGI,[40],6.85 µM
same,TGI,[41],> 39 µM
same,TGI,[42],22.6 µM
same,TGI,[43],12.6 µM
same,TGI,[44],7.99 µM
same,TGI,[45],3.53 µM
same,TGI,[46],16.9 µM
same,TGI,[47],13.3 µM
same,TGI,[48],4.21 µM
same,TGI,[49],> 34 µM
same,TGI,[50],4.45 µM
same,TGI,[51],> 100 µM
same,TGI,[52],20.7 µM
same,TGI,[53],4.9 µM
same,TGI,[54],9.43 µM
same,TGI,[55],13.3 µM
same,TGI,[56],> 29.3 µM
NC(N)=N/N=C/c1c(-c2ccc(Cl)c(Cl)c2Cl)nc2sccn12,TGI,[1],2.47 µM
same,TGI,[5],3.33 µM
same,TGI,[12],> 100 µM
same,TGI,[13],3.12 µM
same,TGI,[21],3.02 µM
same,TGI,[25],3.07 µM
same,TGI,[32],2.65 µM
same,TGI,[33],2.73 µM
same,TGI,[34],2.82 µM
same,TGI,[40],> 100 µM
same,TGI,[45],2.81 µM
same,TGI,[46],2.7 µM
same,TGI,[52],3.56 µM
same,TGI,[54],2.3 µM
same,TGI,[55],3.29 µM
same,TGI,[56],3.12 µM
Cc1ccccc1N=Nc1ccc(N=Nc2c(O)ccc3cc(S(=O)(=O)O)cc(S(=O)(=O)O)c23)c(C)c1,TGI,[1],> 100 µM
same,TGI,[2],> 100 µM
same,TGI,[3],> 100 µM
same,TGI,[4],> 100 µM
same,TGI,[5],> 100 µM
same,TGI,[6],> 100 µM
same,TGI,[7],> 100 µM
same,TGI,[8],> 100 µM
same,TGI,[9],> 100 µM
same,TGI,[10],> 100 µM
same,TGI,[11],> 100 µM
same,TGI,[12],> 100 µM
same,TGI,[13],> 100 µM
same,TGI,[14],> 100 µM
same,TGI,[15],> 100 µM
same,TGI,[17],> 100 µM
same,TGI,[18],> 100 µM
same,TGI,[19],> 100 µM
same,TGI,[20],> 100 µM
same,TGI,[21],> 100 µM
same,TGI,[23],> 100 µM
same,TGI,[24],> 100 µM
same,TGI,[25],> 100 µM
same,TGI,[57],> 100 µM
same,TGI,[26],> 100 µM
same,TGI,[27],> 100 µM
same,TGI,[28],> 100 µM
same,TGI,[29],> 100 µM
same,TGI,[30],> 100 µM
same,TGI,[31],> 100 µM
same,TGI,[32],> 100 µM
same,TGI,[33],> 100 µM
same,TGI,[34],> 100 µM
same,TGI,[35],> 100 µM
same,TGI,[37],> 100 µM
same,TGI,[38],> 100 µM
same,TGI,[58],> 100 µM
same,TGI,[39],> 100 µM
same,TGI,[40],> 100 µM
same,TGI,[41],> 100 µM
same,TGI,[42],> 100 µM
same,TGI,[43],> 100 µM
same,TGI,[44],> 100 µM
same,TGI,[45],> 100 µM
same,TGI,[46],> 100 µM
same,TGI,[47],> 100 µM
same,TGI,[48],> 100 µM
same,TGI,[49],> 100 µM
same,TGI,[50],> 100 µM
same,TGI,[51],> 100 µM
same,TGI,[52],> 100 µM
same,TGI,[53],> 100 µM
same,TGI,[55],> 100 µM
